# Reference: PubChem BioAssay (NCI)
# Several values for one entry are separate records, joined by “and”; a condition that tells them apart may be missing. Equal values may be shown once.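 Five concentrations, 48 hours, 96-well plates. Abbreviation: GI50, concentration required for 50% inhibition of growth. TGI denotes the concentration required for complete inhibition of growth.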
# Assays:
# Assay in all cases: inhibition of tumour cell growth, NCI panel, 48 h
# [1] = system: 786-0 renal
# [2] = system: A498 renal
# [3] = system: A549 NSCLC
# [4] = system: ACHN renal
# [5] = system: CAKI-1 renal
# [6] = system: CCRF-CEM leukemia
# [7] = system: COLO 205 colon
# [8] = system: DLD-1 colon
# [9] = system: DMS 114 small cell lung
# [10] = system: DMS 273 small cell lung
# [11] = system: EKVX NSCLC
# [12] = system: HCC-2998 colon
# [13] = system: HCT-116 colon
# [14] = system: HCT-15 colon
# [15] = system: HL-60(TB) leukemia
# [16] = system: HOP-18 NSCLC
# [17] = system: HOP-62 NSCLC
# [18] = system: HOP-92 NSCLC
# [19] = system: HT29 colon
# [20] = system: IGROV1 ovarian
# [21] = system: K-562 leukemia
# [22] = system: KM12 colon
# [23] = system: KM20L2 colon
# [24] = system: LOX IMVI melanoma
# [25] = system: LXFL 529 NSCLC
# [26] = system: M14 melanoma
# [27] = system: M19-MEL melanoma
# [28] = system: MALME-3M melanoma
# [29] = system: MOLT-4 leukemia
# [30] = system: NCI-H226 lung
# [31] = system: NCI-H23 lung
# [32] = system: NCI-H460 lung
# [33] = system: NCI-H522 lung
# [34] = system: OVCAR-3 ovarian
# [35] = system: OVCAR-4 ovarian
# [36] = system: OVCAR-5 ovarian
# [37] = system: OVCAR-8 ovarian
# [38] = system: RPMI-8226 leukemia
# [39] = system: RXF 393 renal
# [40] = system: SF-268 CNS
# [41] = system: SF-295 CNS
# [42] = system: SF-539 CNS
# [43] = system: SK-MEL-2 melanoma
# [44] = system: SK-MEL-28 melanoma
# [45] = system: SK-MEL-5 melanoma
# [46] = system: SK-OV-3 ovarian
# [47] = system: SN12C renal
# [48] = system: SNB-19 CNS
# [49] = system: SNB-75 CNS
# [50] = system: SNB-78 CNS
# [51] = system: SR leukemia
# [52] = system: SW-620 colon
# [53] = system: TK-10 renal
# [54] = system: U251 CNS
# [55] = system: UACC-257 melanoma
# [56] = system: UACC-62 melanoma
# [57] = system: UO-31 renal
smiles,measurement,setting,value
CCOc1ccc2[nH]c3c(C)c4cc[n+](C)cc4c(C)c3c2c1,TGI,[1],1.62 µM and 2.43 µM
same,GI50,[2],11.1 µM and 48 µM
same,TGI,[2],> 100 µM
same,TGI,[3],43.9 µM and > 100 µM
same,GI50,[4],6.04 µM and 17.5 µM
same,TGI,[4],> 100 µM
same,TGI,[5],> 35.3 µM
same,TGI,[6],23.7 µM and 37.3 µM
same,GI50,[7],0.791 µM and 1.6 µM
same,TGI,[7],2.62 µM and 4.69 µM
same,TGI,[8],> 100 µM
same,GI50,[9],0.48 µM and 1.24 µM
same,TGI,[9],2.74 µM and 4.7 µM
same,GI50,[10],0.651 µM and 1.33 µM
same,TGI,[10],6.33 µM and 13.8 µM
same,TGI,[11],> 100 µM
same,TGI,[12],10.6 µM and 16.2 µM
same,TGI,[13],18.5 µM and > 37.7 µM
same,GI50,[14],6.05 µM and > 35.6 µM
same,TGI,[14],> 100 µM
same,TGI,[15],29.9 µM and > 52.2 µM
same,TGI,[16],33.6 µM and 49.2 µM
same,GI50,[17],0.415 µM and 1.12 µM
same,TGI,[17],4.76 µM and 6.01 µM
same,TGI,[18],13.1 µM and 25.3 µM
same,TGI,[19],28.4 µM and 32.7 µM
same,TGI,[20],32 µM and > 44.7 µM
same,TGI,[21],24.5 µM and 18.3 µM
same,TGI,[22],14.4 µM and 21.6 µM
same,TGI,[23],47.8 µM and > 96.8 µM
same,GI50,[24],2.99 µM and 11.4 µM
same,TGI,[24],19.4 µM and > 67.1 µM
same,TGI,[25],1.54 µM and 3.6 µM
same,TGI,[26],30.5 µM and 58.5 µM
same,GI50,[27],0.557 µM and 1.5 µM
same,TGI,[27],2.27 µM and 4.23 µM
same,GI50,[28],0.417 µM and 1.43 µM
same,TGI,[28],3.18 µM and 4.52 µM
same,GI50,[29],1.11 µM and 2.69 µM
same,TGI,[29],21.6 µM and > 56 µM
same,TGI,[30],0.965 µM and 2.88 µM
same,TGI,[31],3.38 µM and 3.31 µM
same,TGI,[32],11.5 µM and 12.6 µM
same,TGI,[33],3.05 µM and 3.57 µM
same,TGI,[34],22.5 µM and 51.7 µM
same,TGI,[35],15.2 µM and 26.2 µM
same,GI50,[36],10.3 µM and 38.8 µM
same,TGI,[36],> 100 µM
same,GI50,[37],0.236 µM and 0.51 µM
same,TGI,[37],9.87 µM and 11.6 µM
same,TGI,[38],> 86.8 µM
same,TGI,[39],> 100 µM
same,TGI,[40],0.605 µM and 1.18 µM
same,TGI,[41],0.672 µM and 1.55 µM
same,TGI,[42],1.63 µM and 2.65 µM
same,TGI,[43],2.53 µM and 8.79 µM
same,TGI,[44],7.9 µM and 13 µM
same,TGI,[45],4.37 µM and 4.31 µM
same,TGI,[46],60.6 µM and 56.3 µM
same,TGI,[47],1.25 µM and 2.69 µM
same,GI50,[48],0.297 µM and 0.707 µM
same,TGI,[48],1.26 µM and 3.37 µM
same,GI50,[49],0.18 µM and 0.0795 µM
same,TGI,[49],0.452 µM and 0.291 µM
same,TGI,[50],> 100 µM
same,GI50,[51],1.13 µM and 2.69 µM
same,TGI,[51],13.7 µM and > 62.5 µM
same,TGI,[52],15.6 µM and > 83.8 µM
same,GI50,[53],9.4 µM and 26.6 µM
same,TGI,[53],81.6 µM and > 100 µM
same,TGI,[54],1.08 µM and 1.15 µM
same,TGI,[55],13.7 µM and 27.8 µM
same,TGI,[56],5.48 µM and 12.3 µM
same,TGI,[57],> 100 µM
